Values after ≈ are worked out from the molar mass of the structure shown. Where two headings read alike, the source gives them in different places.
Experiments:
A. baumannii ATCC 19606 = assay: MIC, broth microdilution; type: cell-based; conditions: Acinetobacter baumannii, ATCC19606, read-out: Minimum inhibitory concentration A.b.^f
Protocol: (§1) The minimum inhibitory concentration of 3H-imidazo[4,5-C]pyridine pleuromutilin onium salt derivatives against the tested pathogenic microorganisms were determined by broth microdilution method, with valnemulin and retapamulin as positive controls.
(§2) The experimental strains included resistant Gram-positive bacteria: Methicillin-resistant S. aureus ATCC 33591; Methicillin-resistant S. aureus ATCC 43300; S. aureus ATCC 29213; Methicillin-resistant S. epidermidis ATCC 51625. Resistant Gram-negative bacteria: A. baumannii ATCC 19606; S. enterica ATCC14028; E. coli ATCC 25922; E. coli CMCC 44103. 9 clinically isolated resistant strains: MRSA-171; MRSA-575; MRSA-206; MRSA-222; MRSA-596; VRE-80; MDR-PA-126; MDR-KP-893; CR-AB-882.
(§3) (1) Preparation of MHB medium: Weigh 18.0 g of MHB medium pre-made powder, add it to 1 L of distilled water, heat and boil until completely dissolved, divide it into conical bottles, sterilize it by high pressure at 121° C. for 15 minutes, and set aside.
(§4) (2) Cultivate the experimental strain to the logarithmic growth phase: Under sterile conditions, inoculate the experimental strain into fresh MHB medium and culture it in a 37° C. constant temperature and humidity incubator for 16-24 hours. Adjust the bacterial solution concentration to 1.5×10^8 CFU/mL and then dilute it 200 times for later use.
(§5) (3) Preparation of storage solution: Weigh the sample to be tested, dissolve it in 1% DMSO solution, and prepare a storage solution with a concentration of 2560 μg/mL; weigh the positive control, dissolve it in sterile distilled water, and prepare a storage solution with a concentration of 2560 μg/mL.
(§6) (4) Preparation of bacterial suspension: Under sterile conditions, the experimental strain cultured to the logarithmic growth phase was calibrated to a 0.5 McFarland unit turbidity standard using MHB medium and then diluted at a ratio of 1:200 to prepare a bacterial suspension with a concentration of 5×10^5 CFU/mL for later use.
(§7) (5) Determination of MIC by two-fold microdilution method: Take a sterile 96-well plate, add 10 μL of the test compound at a concentration of 2560 μg/mL, and perform serial dilutions by the two-fold dilution method. At the same time, set up a negative control group without drug. Then add 190 μL of diluted bacterial solution to each well, so that the final bacterial solution concentration in each well is 5×10^5 CFU/mL, and incubate in a 37° C. constant temperature and humidity chamber for 24 hours.

E. coli ATCC 25922 = assay: MIC, broth microdilution; type: cell-based; conditions: Escherichia coli, ATCC25922, read-out: Minimum inhibitory concentration E.c.^h
Protocol: as §1, §2, §3, §4, §5, §6, §7

E.coli CMCC 44103 = assay: MIC, broth microdilution; type: cell-based; conditions: Escherichia coli, CMCC44103, read-out: Minimum inhibitory concentration E.c.^i
Protocol: as §1, §2, §3, §4, §5, §6, §7

[1] = system: Methicillin-resistant S. aureus ATCC 33591; assay: MIC, broth microdilution; type: cell-based; conditions: Staphylococcus aureus, ATCC 33591 / MRSA, read-out: Minimum inhibitory concentration MRSA^b
Protocol: as §1, §2, §3, §4, §5, §6, §7

[2] = system: Methicillin-resistant S. aureus ATCC 43300; assay: MIC, broth microdilution; type: cell-based; conditions: Staphylococcus aureus, ATCC 43300 / MRSA, read-out: Minimum inhibitory concentration MRSA^c
Protocol: as §1, §2, §3, §4, §5, §6, §7

[3] = system: Methicillin-resistant S. epidermidis ATCC 51625; assay: MIC, broth microdilution; type: cell-based; conditions: Staphylococcus epidermidis, ATCC 51625 / MRSE, read-out: Minimum inhibitory concentration MRSE^e
Protocol: as §1, §2, §3, §4, §5, §6, §7

S. aureus ATCC 29213 = assay: MIC, broth microdilution; type: cell-based; conditions: Staphylococcus aureus, ATCC29213, read-out: Minimum inhibitory concentration S.a.^d
Protocol: as §1, §2, §3, §4, §5, §6, §7

S. enterica ATCC14028 = assay: MIC, broth microdilution; type: cell-based; conditions: Salmonella enterica, ATCC14028, read-out: Minimum inhibitory concentration S.e.^g
Protocol: as §1, §2, §3, §4, §5, §6, §7

[4] = system: carbapenem-resistant Acinetobacter baumannii-882; assay: MIC, clinical isolates; type: cell-based; conditions: read-out: Antibacterial activity (MIC) CR-AB^j
Protocol: as §1, §2, §3, §4, §5, §6, §7

[5] = system: methicillin-resistant Staphylococcus aureus-171; assay: MIC, clinical isolates; type: cell-based; conditions: MRSA, read-out: Antibacterial activity (MIC) MRSA^b
Protocol: as §1, §2, §3, §4, §5, §6, §7

[6] = system: methicillin-resistant Staphylococcus aureus-206; assay: MIC, clinical isolates; type: cell-based; conditions: MRSA, read-out: Antibacterial activity (MIC) MRSA^d
Protocol: as §1, §2, §3, §4, §5, §6, §7

[7] = system: methicillin-resistant Staphylococcus aureus-222; assay: MIC, clinical isolates; type: cell-based; conditions: MRSA / MRSE, read-out: Antibacterial activity (MIC) MRSE^e
Protocol: as §1, §2, §3, §4, §5, §6, §7

[8] = system: methicillin-resistant Staphylococcus aureus-575; assay: MIC, clinical isolates; type: cell-based; conditions: MRSA, read-out: Antibacterial activity (MIC) MRSA^c
Protocol: as §1, §2, §3, §4, §5, §6, §7

[9] = system: methicillin-resistant Staphylococcus aureus-596; assay: MIC, clinical isolates; type: cell-based; conditions: MRSA, read-out: Antibacterial activity (MIC) MRSA^f
Protocol: as §1, §2, §3, §4, §5, §6, §7

[10] = system: multidrug-resistant Klebsiella pneumoniae-893; assay: MIC, clinical isolates; type: cell-based; conditions: clinical isolate MDR-KP-893
Protocol: as §1, §2, §3, §4, §5, §6, §7

[11] = system: multidrug-resistant Pseudomonas aeruginosa-126; assay: MIC, clinical isolates; type: cell-based; conditions: read-out: Antibacterial activity (MIC) MDR-PA^h
Protocol: as §1, §2, §3, §4, §5, §6, §7

[12] = system: vancomycin-resistant Enterococcus-80; assay: MIC, clinical isolates; type: cell-based; conditions: VRE, read-out: Antibacterial activity (MIC) VRE^g
Protocol: as §1, §2, §3, §4, §5, §6, §7

A549 Cells = assay: Cytotoxicity, Cell Counting Kit-8; type: cell-based
Protocol: (§8) Cell Counting Kit-8 was used to evaluate the cytotoxicity of the compounds.
(§9) (4) Cell culture: HepG2, HEK293 and A549 cells were evenly dispersed in culture medium, seeded into 96-well plates, and cultured under appropriate environmental conditions to keep the cells completely attached to the well walls.
(§10) (5) Compound treatment: Add different concentrations of compounds I-8 and I-9 to each well (the concentrations are 0.78, 1.56, 3.13, 6.25, 12.5, 25, 50 and 100 μM, respectively, and perform 6 parallel experiments). Set up a blank control group and a normal control group. After incubation for 24 hours, observe the cell condition, which observed under a microscope.
(§11) (6) CCK-8 solution treatment: Add CCK-8 solution to each well and incubate for 4 hours to allow it to react with the cells.
(§12) (7) Absorbance determination: Use a full-wavelength scanning multifunctional reader, place the 96-well plate in the instrument, oscillate to mix to make the color evenly distributed, and measure the absorbance value at 490 nm.
(§13) (8) Data analysis: Based on the measured absorbance values, the cell survival rate at different concentrations can be calculated. The median cytotoxic concentration was used to evaluate the cytotoxicity of the compound to A549, HEK293 and HepG2 cells.

HEK293 Cells = assay: Cytotoxicity, Cell Counting Kit-8; type: cell-based
Protocol: as §8, §9, §10, §11, §12, §13

HepG2 Cells = assay: Cytotoxicity, Cell Counting Kit-8; type: cell-based
Protocol: as §8, §9, §10, §11, §12, §13

[13] = system: Staphylococcus aureus (MRSA, ATCC 33591); assay: Mouse MRSA systemic infection model, survival rate; type: in vivo; conditions: MRSA-infected mice, 5, 10, 20 mg/kg single intraperitoneal injection 1 hour after infection, 7-day survival
Protocol: (§14) Establishment of a mouse model of MRSA systemic infection
(1) Solution preparation and bacterial activation: Reference Example 15.
(§15) (2) Pretreatment: All mice received cyclophosphamide treatment, with the first intraperitoneal injection of 150 mg/kg cyclophosphamide 4 days before infection and the second intraperitoneal injection of 100 mg/kg cyclophosphamide 1 day before infection.
(3) Control group treatment: Mice in the blank control group received intraperitoneal injection of 0.9% saline.
(4) Infection process: Mice were anesthetized with isoflurane and infected by intraperitoneal injection of Staphylococcus aureus (MRSA, ATCC 33591) at a concentration of 10^7 CFU/mL.
(1) Experimental groups: The doses of compound i and valnemulin were 5, 10, and 20 mg/kg, respectively (the solvent was dimethyl sulfoxide: Tween-80: sterile water=1:0.5:9.5);
A model control group (administered with a solvent after infection with bacteria) and a blank control group (administered with a solvent only without infection with bacteria) were set up, with 10 mice in each group, half of which were male and half were female.
(2) Time point: Intraperitoneal injection was performed in the experimental group mice at 1 hour after infection.
(3) Therapeutic dose: The mice in the experimental groups received intraperitoneal injection of 0.5 mL of compound i and valnemulin at different concentrations. […]

[14] = system: Staphylococcus aureus (MRSA, ATCC 33591); assay: Mouse MRSA systemic infection model, H&E tissue sections; type: in vivo; conditions: MRSA-infected mice
Protocol: as §14, §15
(4) Infection process: Mice were anesthetized with isoflurane and infected by intraperitoneal injection of Staphylococcus aureus (MRSA, ATCC 33591) at a concentration of 10^7 CFU/mL. […]
(2) Processing: • (a) Time point: At the first hour after infection, mice in the experimental group received intraperitoneal injection of 0.5 mL of compounds of different concentrations, while mice in the control group received the same volume of solvent. • (b) Treatment time: […]
Part II: The samples were fixed with 10% formalin buffer, then embedded in paraffin and sectioned. The sections were stained with hematoxylin and eosin (H&E) and then examined under an optical microscope.

[15] = 5 mg/kg compound i, intraperitoneal

In the case of `C=C[C@]1(C)C[C@@H](OC(=O)CSc2nc3cc[n+](Cc4ccc(C#N)cc4)cc3[nH]2)[C@]2(C)[C@H](C)CC[C@]3(CCC(=O)[C@H]32)[C@@H](C)[C@@H]1O` [Compound h, 5-(4-cyanobenzyl)-2-((2-(((3aR,4R,5R,7S,8S,9R,9aS,12R)-8-hydroxy-4,7,9,12-tetramethyl-3-oxo-7-vinyldecahydro-4,9a-propancyclopenta[8]cyclo-5-yl)oxy)-2-oxoethyl)thio)-3H-imidazo[4,5-C]pyridine-5-ium], the MIC (A. baumannii ATCC 19606) is reported as 1 mg/L, the MIC (E. coli ATCC 25922) is reported as 0.5 mg/L and the MIC (E.coli CMCC 44103) is reported as 2 mg/L. For the same molecule, the MIC [1] was 2 mg/L, the MIC [2] was 0.5 mg/L and the MIC [3] was 0.25 mg/L. For the same molecule, the MIC (S. aureus ATCC 29213) was 0.5 mg/L, the MIC (S. enterica ATCC14028) was 2 mg/L and the MIC [4] was 64 mg/L. It also gave an MIC [5] of 16 mg/L, an MIC [6] of 4 mg/L and an MIC [7] of 16 mg/L. The MIC [8] was 32 mg/L, the MIC [9] was 8 mg/L and the “Antibacterial activity (MIC) MDR-KP^i” value [10] was 16 mg/L. For the same molecule, the MIC [11] was 32 mg/L, the MIC [12] was 2 mg/L and the CC50 (A549 Cells; CCK-8, 24 hours incubation, read-out: CC50 A549 Cells) was > 100 µM. For the same molecule, the CC50 (HEK293 Cells; CCK-8, 24 hours incubation, read-out: CC50 HEK293 Cells) was > 100 µM and the CC50 (HepG2 Cells; CCK-8, 24 hours incubation, read-out: CC50 HepG2 Cells) was 96.3 µM.
With `C=C[C@]1(C)C[C@@H](OC(=O)CSC(C)(C)CNC(=O)[C@H](N)C(C)C)[C@]2(C)[C@H](C)CC[C@]3(CCC(=O)[C@H]32)[C@@H](C)[C@@H]1O` [Valnemulin, reference compound] the MIC (A. baumannii ATCC 19606) was 2 mg/L (≈ 3.54 µM), the MIC (E. coli ATCC 25922) was 16 mg/L (≈ 28.3 µM) and the MIC (E.coli CMCC 44103) was 64 mg/L (≈ 113 µM). It also gave an MIC [1] of 64 mg/L (≈ 113 µM), an MIC [2] of 8 mg/L (≈ 14.2 µM) and an MIC [3] of 64 mg/L (≈ 113 µM). It also gave an MIC (S. aureus ATCC 29213) of 4 mg/L (≈ 7.08 µM), an MIC (S. enterica ATCC14028) of 64 mg/L (≈ 113 µM) and a CC50 (A549 Cells; human, 24 h) of 53.7 µM. For the same molecule, the CC50 (HEK293 Cells; human, 24 h) was 65.4 µM, the CC50 (HepG2 Cells; human, 24 h) was 77.3 µM and the “survival rate of mice” value [13] was “improved”. For the same molecule, the “kidney H&E histology” value [14, 15] was “inflammatory cell infiltration was still observed”, the “liver H&E histology” value [14, 15] was “still had inflammatory cell infiltration” and the “lung H&E histology” value [14, 15] was “alleviated, but they still did not return to normal”. For the same molecule, the “spleen H&E histology” value ([14]; 5 mg/kg, after 7 days of treatment) was “immune response was weakened”.

— patent publication US12275734B1, “Pleuromutilin onium salt derivative containing a 3H-imidazo[4,5-c]pyridine side chain, and a preparation method and application thereof” (SHAANXI UNIVERSITY OF SCIENCE AND TECHNOLOGY, priority 2024, dated 2025)
